Key:
human H1 receptor [1] = target: T1, human H1 receptor (Homo sapiens, UniProt P35367); assay: Histamine H1 functional antagonist assay: determination of functional pKi values (FLIPR); type: cell-based; details: CHO cells expressing human H1 receptor, histamine at EC80, FLIPR, read-out: average pKi (pKb) at H1 (converted)
T1 construct: expressed in transfected cells
Experimental: (§1) 1. Generation of Histamine H1 Cell Line The human H1 receptor is cloned using known procedures described in the literature [Biochem. Biophys. Res. Commun., 201(2):894 (1994)]. Chinese hamster ovary (CHO) cells stably expressing the human H1 receptor are generated according to known procedures described in the literature [Br. J. Pharmacol., 117(6):1071 (1996)].
The histamine H1 cell line is seeded into non-coated black-walled clear bottom 384-well tissue culture plates in alpha minimum essential medium (Gibco/Invitrogen, cat no. 22561-021), supplemented with 10% dialysed foetal calf serum (Gibco/Invitrogen cat no. 12480-021) and 2 mM L-glutamine (Gibco/Invitrogen cat no 25030-024) and is maintained overnight at 5% CO2, 37° C.
Excess medium is removed from each well to leave 10 μl. 30 μl loading dye (250 μM Brilliant Black, 2 μM Fluo-4 diluted in Tyrodes buffer+probenecid (145 mM NaCl, 2.5 mM KCl, 10 mM HEPES, 10 mM D-glucose, 1.2 mM MgCl2, 1.5 mM CaCl2, 2.5 mM probenecid, pH adjusted to 7.40 with NaOH 1.0 M)) is added to each well and the plates are incubated for 60 min at 5% CO2, 37° C.
10 μl of test compound, diluted to the required concentration in Tyrodes buffer+probenecid (or 10 μl Tyrodes buffer+probenecid as a control) is added to each well and the plate is incubated for 30 min at 37° C., 5% CO2. The plates are then placed into a FLIPR™ (Molecular. Devices, UK) to monitor cell fluorescence (λex=488 nm, λEM=540 nm) in the manner described in Sullivan et al., (In: Lambert DG (ed.), Calcium Signaling Protocols, New Jersey: Humana Press, 1999, 125-136) before and after the addition of […] at a concentration that results in the final assay concentration of histamine being EC80.
Functional antagonism is indicated by a suppression of histamine induced increase in fluorescence, as measured by the FLIPR™ system (Molecular Devices). By means of concentration effect curves, functional affinities are determined using standard pharmacological mathematical analysis.

[2] = test system: histamine-induced congestion; assay: Intranasal challenge method: whole body plethysmography; type: in vivo, guinea pigs; details: for inhibition of the response to histamine challenge (PenH AUC): dosed intranasally at 1 mg/ml either 1 hr or 24 hr before histamine challenge
Experimental: Female Dunkin-Hartley guinea pigs 150-250 g are sensitised twice daily for 5 days (week 1) with ovalbumin (OVA) and aluminium hydroxide (Al(OH)3 or Alum) in physiological saline, 25 μl/nostril. Solution is made up at 20 μg/ml OVA, 180 mg/ml Alum. During weeks 2 and 3 animals receive 25 μl/nostril of OVA (5 mg/ml) once daily. During Week 4 guinea pigs will be entered into study but are continually sensitized as per weeks 2 and 3 until the day before dosing with compound or vehicle.
Pretreatment with test compound is performed at various times prior to histamine challenge. Efficacy dose-response curves are determined 1 hr and/or 3 hr after dosing whereas duration of action may be studied up to 7 days post dose. Test compounds are formulated as solutions in 0.9% sterile saline or suspensions in 0.9% sterile saline/tween80.
Guinea pigs were anaesthetised with isoflurane (5%, 2-31/min O2), placed in a supine position, and 25 μl of test compound or vehicle dosed into each nostril using a Gilson pipette. After dosing, animals remain supine for at least 30 seconds during recovery from anaesthesia.
At 30 minutes before the time of histamine challenge, guinea pigs are dosed with atropine sulphate (Sigma A0257, dissolved in saline), 1 mg/kg i.p. Animals are then placed into whole body plethysmograph systems (Buxco® Electronics) where the parameter PenH area under curve (AUC) is recorded as outlined in […], E., SCHWARZE, J., TAKEDA, K., OSHIBA, A., LARSEN, L., IRVIN, C. G. & GELFAND, E. W. (1997) Noninvasive measurement of airway responsiveness in allergic mice using barometric plethysmography. Am. J. Respir. Crit. Care Med. 156, 766-775.
Hamelmann et al. A 10 minute baseline AUC is recorded and if this value is over 1000, the animals are excluded.
After the stipulated pre-dose time has been reached, guinea pigs are re-anaesthetised with isoflurane and dosed with either 10 mM or 15 mM histamine or phosphate-buffered saline (PBS), (25 μl per nostril). On recovery from anaesthesia animals are returned to the individual plethysmograph chambers and 4×10 min consecutive PenH AUC recordings are made. These recordings are summed to give a cumulative AUC over 40 mins post histamine challenge for each animal. Data are analysed using ANOVA with post-hoc Fishers LSD test (general linear models, Statistica®) and finally Hochberg adjustment. Inhibition of histamine-induced congestion is determined by statistically significant differences between the mean responses of compound pre-treated groups compared to the vehicle pre-treated, histamine-challenged group.

human H1 receptor [3] = target: T1, human H1 receptor; assay: Histamine H1 functional antagonist assay: determination of antagonist duration (washout, FLIPR); type: cell-based; details: at one or more time points after washout
Experimental: as §1
To determine the antagonist duration, cells are cultured overnight in non-coated black-walled clear bottom 96-well tissue culture plates, are washed with PBS and are incubated with a concentration of antagonist chosen to give an approximate DR in the range 30-300. Following the 30 min antagonist incubation period, the cells are washed two or three times with 200 μl of PBS and then 100 μl Tyrodes buffer is added to each well to initiate antagonist dissociation. Following incubation for predetermined times, typically 30-270 min at 37° C., the cells are then washed again with 200 μl PBS and are incubated with 100 Tyrodes buffer containing Brilliant Black, probenecid and Fluo-4 for 45 min at 37° C., as described above. After this period, the cells are challenged with histamine in the FLIPR™ as described above. The dose ratio at each time point is used to determine the fractional H1 receptor occupancy by the following equation: fractional receptor occupancy=(DR-1)/DR. The decrease in receptor occupancy over time approximates to a straight line and is analysed by linear regression. The slope of this straight line fit is used as an index of the dissociation rate of the antagonist. The dose ratios for antagonist treated cells and for antagonist treated and washed cells at each time point are used to calculate a relative dose ratio (rel DR) which is also used as an index of antagonist duration. Antagonists with long duration of action produce rel DR values close to 1, and antagonists with short duration of action produce rel DR values that approaches the dose ratio value obtained for antagonist treatment alone.

T1 sequence (P35367 whole entry): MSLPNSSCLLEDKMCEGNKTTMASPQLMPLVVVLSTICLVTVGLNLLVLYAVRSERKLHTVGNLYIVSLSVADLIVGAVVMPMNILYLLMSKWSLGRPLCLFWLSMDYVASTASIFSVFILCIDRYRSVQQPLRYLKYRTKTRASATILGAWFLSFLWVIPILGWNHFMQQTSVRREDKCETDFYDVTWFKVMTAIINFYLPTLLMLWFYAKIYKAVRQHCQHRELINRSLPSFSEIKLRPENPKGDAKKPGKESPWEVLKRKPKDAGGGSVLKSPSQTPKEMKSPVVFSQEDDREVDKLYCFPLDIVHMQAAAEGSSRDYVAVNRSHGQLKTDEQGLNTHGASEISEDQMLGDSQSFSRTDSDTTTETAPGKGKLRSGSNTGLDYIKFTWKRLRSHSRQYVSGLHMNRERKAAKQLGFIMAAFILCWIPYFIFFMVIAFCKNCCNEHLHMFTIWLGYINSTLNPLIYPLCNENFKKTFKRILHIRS

In the case of `O=C(CC(F)(F)F)NCCN1CCC[C@@H]1Cn1nc(Cc2ccc(Cl)cc2)c2ccccc2c1=O.O=C(O)C(F)(F)F` [Example 36b, N-[2-((2R)-2-{[4-[(4-chlorophenyl)methyl]-1-oxo-2(1H)-phthalazinyl]methyl}-1-pyrrolidinyl)ethyl]-3,3,3-trifluoropropanamide, trifluoroacetate], the Ki (human H1 receptor [1]) is reported as less than 31.6 nM, the “inhibition of the response to histamine challenge (PenH AUC)” value [2] is reported as “significantly (p<0.05) inhibited the response at both timepoints” and the “duration of action compared with azelastine in the histamine H1 functional antagonist assay” value (human H1 receptor [3]) is reported as “longer duration of action than azelastine”.

For `COCCCC(=O)NCCN1CCC[C@@H]1Cn1nc(Cc2ccc(Cl)cc2)c2ccccc2c1=O.O=C(O)C(F)(F)F` [Example 34c, N-[2-((2R)-2-{[4-[(4-Chlorophenyl)methyl]-1-oxo-2(1H)-phthalazinyl]methyl}-1-pyrrolidinyl)ethyl]-4-(methyloxy)butanamide, trifluoroacetate salt], the “inhibition of the response to histamine challenge (PenH AUC)” value [2] was “significantly (p<0.05) inhibited the response at both timepoints”.

With `COCCCC(=O)NCCN1CCC[C@@H]1Cn1nc(Cc2ccc(Cl)cc2)c2ccccc2c1=O` [Example 34, N-[2-((2R)-2-{[4-[(4-Chlorophenyl)methyl]-1-oxo-2(1H)-phthalazinyl]methyl}-1-pyrrolidinyl)ethyl]-4-(methyloxy)butanamide] the “inhibition of the response to histamine challenge (PenH AUC), 3 hr timepoint” value ([2]; another experiment, dosed intranasally at 1 mg/ml and at 10 mg/ml 3 hr before histamine challenge) was “significantly (p<0.05) inhibited the response at the 3 hr timepoint”, the “inhibition of the response to histamine challenge (PenH AUC), 24 hr timepoint” value ([2]; another experiment, dosed intranasally at 1 mg/ml and at 10 mg/ml 24 hr before histamine challenge) was “not the 24 hr timepoint” and the “inhibition of the response to histamine challenge (PenH AUC)” value [2] was “significantly (p<0.05) inhibited the response at both timepoints”.

In the case of `COCCCC(=O)NCCN1CCC[C@@H]1Cn1nc(Cc2ccc(Cl)cc2)c2ccccc2c1=O.Cl` [Example 34a, N-[2-((2R)-2-{[4-[(4-Chlorophenyl)methyl]-1-oxo-2(1H)-phthalazinyl]methyl}-1-pyrrolidinyl)ethyl]-4-(methyloxy)butanamide, hydrochloride salt], the “inhibition of the response to histamine challenge (PenH AUC)” value [2] is reported as “significantly (p<0.05) inhibited the response at both timepoints”.

Source: patent publication US20100184770A1, “COMPOUNDS” (Glaxo Group Limited, priority 2006, published 2010)
